We go through eight compounds from publication PMC10537356, “Analyzing the Material Basis of Anti-RSV Efficacy of Lonicerae japonicae Flos Based on the PK-PD Model” (Molecules, 2023).

Data set [1] is described as follows: Pharmacokinetic study of 15 LJF components in plasma of RSV-infected mice after oral LJF extract (UHPLC-QQQ MS). Particulars: RSV mice plasma, oral LJF extract 12.0 g/kg; for AUC(0-t): read-out: AUC(0–t); for AUC(0-inf): read-out: AUC(0–∞); for Cmax: read-out: Cmax; for MRT last: read-out: MRT(0–t); for half-life: read-out: T1/2 (converted). Also on record: Tmax: unit: h. It counts as in vivo. How it is done:
The LJF (12.0 g) were pulverized and soaked in pure water at a solid: liquid ratio of 1:200 and followed by extraction for 30 min. Then, the LJF extract was obtained by filtration, centrifugation (5000 rpm, 10 min) and concentration. Finally, the remains were freeze-dried and stored at −20 °C for subsequent pharmacokinetic assays.
All mice fasted for 1 night after being acclimatized for 7 days (no water restriction) and were randomly separated into 3 groups with 6 mice in each group. One group of healthy mice was used as the normal control group and administered physiological saline; the model group was established by intranasal infusion of RSV (TCID50 = 10^−6, 35 μL/mouse) and administered physiological saline. Members of the drug group were orally administered with LJF extract at the dose of 12 g/kg after infecting RSV. At 0.25 h, 0.5 h, 0.75 h, 1 h, 1.5 h, 2 h, 3 h,4 h, 6 h, 8 h, 10 h, 12 h and 24 h after administration blood samples (approximately 500 μL) were collected into anticoagulant tubes. The blood samples were centrifuged at 3500 rpm, 4 °C for 10 min, and the plasma (upper layer) was separated and stored at −80 °C till analysis. At the same time, the lung tissue was removed, weighed and placed in the EP tube together with five times the weight of the lung tissue in PBS solution containing 1% PMSF. Subsequently, the tissue samples were homogenized using the tissue grinder, and centrifugation to obtain a supernatant for further examination.
An amount of 50 μL IS and 2 mL acetonitrile were mixed into 200 μL plasma, after which the mixture was centrifuged (12,000 rpm, 4 °C, 10 min) and dried with nitrogen. The residue was dissolved in 70% acetonitrile containing 1% formic acid, centrifuged and subsequently the supernatant (2 μL) was injected into the UHPLC-QQQ-MS system.
Agilent 1260 series (Santa Clara, CA, USA) chromatography system was equipped with a solvent degasser, G1311B quaternary pump and G1329B automated injector. The elution was performed on a Halo® C18 column (2.1 × 100 mm, 2.7 μm) at 30 °C, and the mobile phase consisted of 0.05% formic acid in water for solvent A and 0.05% formic acid in acetonitrile for solvent B at a flow rate of 0.3 mL/min. The gradient elution was as follows: 0–30 min at 5–25% B, 30–35 min at 25–55% B, 35–45 min at 55–70% B, 45–55 min at 70–100% B, and 5 μL for analysis.
The MS/MS analysis was performed by Agilent 6470 Triple Quadrupole LC/MS (Santa Clara, CA, USA) with an ESI source. MRM was selected for the detection of the standards and internal standard with a dwell time of 2 ms. The mass spectrometry conditions were optimized as follows: Nebulizer pressure: 50 psi; capillary: positive: 4000 V, negative: 3500 V; cell acceleration voltage: 5 V; gas temp: 350 °C and flow rate at 10 L/min. The acquired data were processed and analyzed by Mass Hunter Workstation quantitative analysis.
Fifteen standards and IS were optimized for mass conditions by the positive and negative ion modes of the chromatographic system, respectively. The pharmacokinetics of 15 chemical constituents in RSV-infected mice were assessed using the UPLC-QQQ-MS/MS method.
The pharmacokinetic parameters, including maximum concentration (Cmax), time to reach Cmax (Tmax), the elimination half-life (T1/2), mean residence time (MRT), and area under the concentration–time curve (AUC) were calculated using non-compartmental analysis by Phoenix 8.1.0.3530.

Data set [2] concerns RSV. To be noted: cited from earlier work; for anti-RSV effects: by inhibiting virus–cell fusion in the early stage and cell–cell fusion at the end of the RSV replication cycle.
The test system of data set [3] is viruses. Also on record: method as in PMID 19904996. Particulars: prevents viruses from entering cells; cited from earlier work.
Setting [4] is: mouse, plasma, po, 12 g/kg, n = 6.
Setting [5] is: mouse, in vivo, po, 12 g/kg, n = 6.
Setting [6] is: mouse, in vivo, n = 6, read-out: Tmax.

SMILES strings stand for the structures. Read-outs that look alike come from different tables or passages of the source.

As a reminder, the AUC(0-t) is exposure summed from dosing to a finite time, without extrapolation to infinity. For orientation: Cmax means the peak of the concentration-time curve. A word on the Tmax: it is the time from dosing to the highest level. Turning to `O=C(/C=C/c1ccc(O)c(O)c1)O[C@@H]1C[C@](O)(C(=O)O)C[C@@H](O)[C@H]1O` [Chlorogenic acid], in data set [1], the “shape of the concentration–time curve” value is recorded as “double or multiple peaks”. In addition, in data set [1] (setting [4]), the AUC(0-t) came to 5190 ng·h/mL, the AUC(0-inf) was determined as 5900 ng·h/mL, the Cmax turned out to be 5600 ng/mL and the MRT last worked out at 2.95 ± 0.0749 h. Also, in data set [1] (setting [4]), the half-life is 26.1 ± 9.42 h. The Tmax in data set [1] (mouse, n = 6, read-out: Tmax) was 2 h. Further, the “inhibition of RSV infection” value in data set [2] (modulating TLR3, TBK1, IRF3 expression, decreasing IFN-β) is listed as “could inhibit RSV infection”.

In the case of `C[C@@H]1[C@H]2[C@H](O[C@@H]3O[C@H](CO)[C@@H](O)[C@H](O)[C@H]3O)OC=C(C(=O)O)[C@H]2C[C@@H]1O` [Loganic acid], in data set [1] (setting [4]), the AUC(0-t) worked out at 84.9 ± 12.8 ng·h/mL, the AUC(0-inf) was 99.3 ± 18.4 ng·h/mL, the Cmax was determined as 87.6 ± 10.9 ng/mL and the MRT last worked out at 2.29 ± 0.337 h. Moreover, in data set [1] (setting [4]), the half-life is 2.33 ± 0.429 h. The Tmax in data set [1] (mouse, n = 6, read-out: Tmax) came out at 0.5 h. Further, the antiviral activity entry in data set [3] is “significant antiviral activity”.

For the compound `O=C(C=Cc1ccc(O)c(O)c1)OC1CC(O)(C(=O)O)CC(O)C1OC(=O)C=Cc1ccc(O)c(O)c1` (stereo not drawn) [Isochlorogenic acid C], the “shape of the concentration–time curve” value in data set [1] is reported as “double or multiple peaks”. In addition, in data set [1] (setting [4]), the area under the curve AUC(0-t) worked out at 926 ± 39 ng·h/mL, the AUC(0-inf) was found to be 1450 ng·h/mL, the Cmax amounted to 560 ± 20.7 ng/mL and the MRT last was found to be 6.39 ± 0.337 h. In data set [1] (setting [4]), the half-life was 26.9 ± 3.16 h. Moreover, in data set [1] (mouse, n = 6, read-out: Tmax), the time to peak (Tmax) amounted to 2 h. Moreover, the anti-RSV effects entry in data set [2] is on record as “specific anti-RSV effects”.

As to `C[C@@H]1O[C@@H](OC[C@H]2O[C@@H](Oc3c(-c4ccc(O)c(O)c4)oc4cc(O)cc(O)c4c3=O)[C@H](O)[C@@H](O)[C@@H]2O)[C@H](O)[C@H](O)[C@H]1O` [Rutin], in data set [1], the “shape of the concentration–time curve” value is reported as “double or multiple peaks”, the “time of first peak of plasma concentration” value is reported as 30 min and the “time of second peak of plasma concentration” value was 2 h. In data set [1] (setting [5]), the AUC(0-t) is 31.3 ± 4.34 ng·h/mL, the AUC(0-inf) stood at 34.3 ± 3.33 ng·h/mL, the highest concentration (Cmax) was determined as 30 ± 2.54 ng/mL and the MRT last amounted to 1.51 ± 0.0291 h. For the same compound, in data set [1] (setting [5]), the half-life is 2.03 ± 1.1 h. The Tmax in data set [1] (setting [6]) worked out at 0.5 h.

Take `O=C(O)/C=C/c1ccc(O)c(O)c1` [Caffeic acid]: the “shape of the concentration–time curve” value in data set [1] was “double or multiple peaks”. In data set [1] (setting [4]), the AUC(0-t) came to 2920 ng·h/mL, the AUC(0-inf) was 3280 ng·h/mL, the Cmax stood at 779 ± 19.2 ng/mL and the MRT last was found to be 5.92 ± 0.239 h. For the same compound, the half-life in data set [1] (setting [4]) was 7.92 ± 1.1 h. The Tmax in data set [1] (mouse, n = 6, read-out: Tmax) was determined as 2 h.

On to `O=c1cc(-c2ccc(O)c(O)c2)oc2cc(O)cc(O)c12` [Luteolin], for which, in data set [1] (setting [4]), the area under the curve AUC(0-t) was 20.9 ± 5.37 ng·h/mL, the AUC(0-inf) amounted to 21.3 ± 5.32 ng·h/mL, the Cmax came out at 19.6 ± 6.11 ng/mL and the MRT last was found to be 2.12 ± 0.149 h. Besides, in data set [1] (setting [4]), the half-life was 1.96 ± 0.746 h. In data set [1] (mouse, n = 6, read-out: Tmax), the Tmax amounted to 2 h.

With `O=C(C=Cc1ccc(O)c(O)c1)OC1CC(O)(C(=O)O)CC(O)C1OC(=O)C=Cc1ccc(O)c(O)c1` (stereo not drawn) [Isochlorogenic acid B], the “shape of the concentration–time curve” value in data set [1] is given as “double or multiple peaks”. Further, in data set [1] (n = 6), the AUC(0–t) came to 1100 ng·h/mL, the AUC(0–∞) was 1740 ng·h/mL, the “MRT(0–t)” value came out at 7.35 ± 0.170 h and the T1/2 stood at 24.4 ± 2.72 h. For the same compound, in data set [1] (n = 6), the Tmax stood at 2.00 ± 0.00 h and the Cmax was found to be 415 ± 4.69 ng/mL. The anti-RSV effects entry in data set [2] was “specific anti-RSV effects”.

Turning to `O=c1c(O[C@@H]2O[C@H](CO)[C@@H](O)[C@H](O)[C@H]2O)c(-c2ccc(O)c(O)c2)oc2cc(O)cc(O)c12` [Isoquercitrin], the “shape of the concentration–time curve” value in data set [1] was “double or multiple peaks”. In addition, in data set [1] (mouse, in vivo, n = 6), the AUC(0-t) worked out at 26.5 ± 1.19 ng·h/mL, the AUC(0-inf) came to 39.6 ± 8.47 ng·h/mL, the Cmax was 26.5 ± 1.16 ng/mL and the MRT last was found to be 1.5 ± 0.0366 h. Also, the half-life in data set [1] (mouse, in vivo, n = 6) was 2.95 ± 1.72 h. The Tmax in data set [1] (setting [6]) amounted to 0.5 h.
